From US9549912B2, “Methods for treating atrial fibrillation” (Armetheon, Inc., priority 2009, dated 2017)
Where “and” joins values, the source holds several entries; their conditions need not be identical. Equal values may be shown once. Entries after “also recorded” stand apart in the source; their conditions may differ.

Key:
[1] = Metabolism and elimination features of budiodarone
[2] = molecular target: cytochrome P450 2C9 (CYP2C9) (Homo sapiens, UniProt P11712); experiment: CYP2C9 inhibition; format: in vitro ADME
Sequence of cytochrome P450 2C9 (CYP2C9) (P11712 whole entry): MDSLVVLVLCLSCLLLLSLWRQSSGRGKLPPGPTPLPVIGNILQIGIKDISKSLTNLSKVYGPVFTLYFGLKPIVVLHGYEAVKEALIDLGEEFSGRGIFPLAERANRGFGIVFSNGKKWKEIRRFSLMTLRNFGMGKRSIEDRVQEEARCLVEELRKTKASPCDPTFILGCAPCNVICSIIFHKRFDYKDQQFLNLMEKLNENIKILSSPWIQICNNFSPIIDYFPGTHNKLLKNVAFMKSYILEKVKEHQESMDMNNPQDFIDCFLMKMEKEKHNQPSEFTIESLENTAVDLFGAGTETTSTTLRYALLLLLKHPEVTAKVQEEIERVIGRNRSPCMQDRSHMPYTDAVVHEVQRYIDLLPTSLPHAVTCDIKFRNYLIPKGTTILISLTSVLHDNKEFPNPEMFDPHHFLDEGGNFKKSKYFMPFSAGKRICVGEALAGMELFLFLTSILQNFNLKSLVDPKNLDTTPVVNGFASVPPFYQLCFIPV

[3] = system: subjects with paroxysmal atrial fibrillation who had implanted pacemakers; experiment: Proof of concept study of ATI-2042 in PAF patients with pacemakers: AF burden and AF episodes (Example 1); format: in vivo, human
Excerpt: Epub 2009 Jan. 26). This study was a proof of concept design seeking preliminary information on the pharmacodynamic effects, safety, and tolerability of the investigational drug ATI-2042 at a variety of doses, in patients with PAF. Patients with advanced DDDRP pacemakers were selected because of the pacemaker's sophisticated diagnostics and the ability to record continuously and log asymptomatic as well as symptomatic episodes. Only post-menopausal or surgically sterile females with a significant PAF burden and pacemakers were included in this study. The pacemakers had to have been in situ for at least 1 month prior to the study and have appropriate arrhythmia diagnostics. In this study, Vitatron pacemakers, models Selection 9000 or T70 pacemakers, were used. […] Although this finding was explored further, it was prudent to commence clinical testing in a population not at risk for this effect. […] The patients underwent screening assessments to assess suitability for the study and to obtain a baseline medical history and examination. The value of this cohort was that the pacemaker was not inserted for bradycardia but for the treatment of AF using various prevention pacing and rate control techniques. The inclusion criteria were as follows: age 18-85 years; […] The initial ATI-2042 dosage for all subjects was 200 mg orally bid, and it was then increased by 200 mg bid for each subsequent study period. Patients received 200 mg bid of ATI-2042 during period 2, 400 mg bid during period 3, 600 mg bid during period 4 and 800 mg bid during period 5, and no drug was administered during baseline and washout periods. “Selection 9000” and “T70” pacemakers (Vitatron, […], The Netherlands) are dual-chamber pacemakers with sophisticated and similar algorithms for AF detection and prevention. Atrial fibrillation detection is based on atrial rate; atrial tachyarrhythmias are detected when the median atrial cycle length is less than that programmed for AT or AF detection. In all patients, atrial fibrillation was detected if the atrial rate was >200 bpm for six consecutive beats, and its end logged if the atrial rate dropped below 200 bpm for 10 beats. […] Pacemaker anti-arrhythmic algorithms were turned off prior to entry into the baseline period and remained turned off until after washout. […] The primary outcome measure, AFB, was defined as the duration of time the subject's cardiac rhythm was AF divided by the total time recorded for that study period, expressed as percent. The total duration of time that the rhythm was AF is a function of the number of PAF episodes and the duration of each episode. Therefore, a reduction in AFB can occur through reduction in either or both of these variables. Atrial fibrillation burden was compared with baseline during the treatment periods. Secondary outcome measures were the number of AF episodes, the safety of ATI-2042, and the incidence and severity of adverse events (AEs). […] Atrial fibrillation burden is given as the percentage of total storage duration. The sample size for this study was selected empirically. All patients who received any amount of study medication were included in the efficacy and safety analysis. Efficacy variables for the study group are described as mean and standard deviation for each study period. Due to the small number of subjects, comparisons of periods 2-6 with baseline were made using estimates from a mixed-effects regression model.

[4] = Safety and tolerability (Example 2); format: in vivo, human
Excerpt: Safety: treatment-emergent adverse event (TEAE) type, severity, and incidence; clinical laboratory assessments, including thyroid function and testicular function (males); coagulation tests; vital signs; physical examinations; ECGs; eye examinations; chest X-rays; and pulmonary function tests.
Statistical methods for safety: Adverse events (AEs) were summarized by system organ class and preferred term. Laboratory parameters and vital signs were summarized by descriptive statistics and shift tables were also created for laboratory parameters. The percent of patients with physical examination findings that changed over the study, with ECG abnormalities by visit, and with corneal deposits were summarized. Chest X-rays and pulmonary function test results were provided in listings.

[5] = Electrophysiological activity in animals: atrial refractoriness, metabolite activity; format: in vivo; settings: animals
[6] = Safety, ECG and thyroid function (Example 1); format: in vivo, human
Experimental: Patients were then monitored for at least 3 h continuously post-dose; this included telemetry, vital signs, and oxygen saturations. Electrocardiograms were taken, and the pacemaker data were downloaded prior to drug administration on day 8 and day 14 of each study period.
Criteria for drug discontinuation included a fall in systolic blood pressure (BP) to <90 mmHg systolic, an increase in BP>200 mmHg, intolerable side-effects, a change in rhythm that in the opinion of the investigator constituted a risk to safety, or a QRS increase >50%. Where possible, ECGs of intrinsic rhythm rather than ventricular-paced rhythm were obtained, as paced complexes can be difficult to interpret for QT prolongation. An increase in QT interval >470 ms for intrinsic and >550 ms for paced beats or an increase of 30% was considered significant.
Electrocardiogram parameters (ventricular HR, PR, QRS, QT, QTc interval) were summarized by baseline, dosing period, and washout using descriptive statistics. Changes from baseline in ECG values at day 8 of dosing and day 14 of washout were also summarized. Baseline values of ECG parameters are defined as the mean of three values recorded prior to the first dose of ATI-2042.

(S)-sec-butyl 2-(3-(4-(2-(diethylamino)ethoxy)-3,5-diiodobenzoyl)benzofuran-2-yl)acetate [ATI-2042]
metabolism [1]: primarily metabolized by esterases
pharmacokinetic features [1]: short half-life, rapid onset and offset, small volume of distribution, and cytochrome P450-independent elimination
CYP2C9 inhibition [2]: inhibitor; also recorded: inhibit CYP2C9
mean AFB (SD) ([3]; 200 mg bid (p2), baseline 20.3+14.6%): 5.2+4.2%
mean AFB (SD) ([3]; 400 mg bid (p3)): 5.2+5.2%
mean AFB (SD) ([3]; 600 mg bid (p4)): 2.8+3.4%
mean AFB (SD) ([3]; 800 mg bid (p5)): 1.5 ± 0.5%
effect on AFB in refractory PAF patients ([3]; all doses): significantly effective in reducing AFB at all doses
decrease in AFB ([3]; all doses (200-800 mg bid)): at least 70%
number of AF episodes ([3]; on drug, remained elevated in washout): increased initially
relative reduction (RR) in AFB from baseline ([3]; p2, 200 mg bid): 71.2 ± 31.3%
mean episode duration (SD) ([3]; p2, 200 mg bid, baseline 4.8+5.2): 1.7+2.5 h
mean episode duration (SD) ([3]; p3, 400 mg bid): 0.6+0.7 h
relative reduction (RR) in AFB from baseline ([3]; p3, 400 mg bid): 71.7 ± 20.6%
mean episode duration (SD) ([3]; p4, 600 mg bid): 0.1+0.2 h
relative reduction (RR) in AFB from baseline ([3]; p4, 600 mg bid): 79.9 ± 26.4%
mean episode duration (SD) ([3]; p5, 800 mg bid): 0.5+0.7 h
relative reduction (RR) in AFB from baseline ([3]; p5, 800 mg bid): 86.8 ± 9.8%
mean episode duration (SD) ([3]; washout): 2.4+3.0 h
mean AFB (SD) ([3]; washout (p6), no drug): 11.7+14.0%
tolerability ([4]; 200, 400, 600 mg BID, up to 12 weeks): well tolerated
creatinine ([4]; BUN unchanged): reversible elevation
ALT ([4]; appeared dose related): mild, reversible increase
corneal deposits (slit-lamp examination) ([4]; end of treatment period): No patient treated with ATI-2042 developed corneal deposits
SAEs possibly related to drug ([4]; hematuria and high INR): Only one SAE was possibly related
amiodarone-like end-organ toxicity (pulmonary fibrosis, corneal deposits, neuropathy, photosensitivity) ([4]; in vivo): No evidence of amiodarone-like end-organ toxicity was seen
thyroid function changes ([4]; in vivo): mild and reversible
most frequent TEAEs ([4]; patients on concomitant warfarin): changes in INR values
left and right atrial refractoriness [5]: increased left and right atrial refractoriness comparable with amiodarone
PR interval reduction from baseline ([6]; 200 mg bid): 16.6+23.9%
PR interval reduction from baseline ([6]; 400 mg bid): 11.4+22.6%
change in QTc from baseline, one patient ([6]; 400 mg bid, patient with AV node ablation, permanently paced): 30 to 60 ms
change in paced QTc from baseline, one patient ([6]; 400 mg bid, same patient): 15%
PR interval reduction from baseline ([6]; 600 mg bid): 27.0+32.1%
PR interval reduction from baseline ([6]; 800 mg bid): 35.1 ± 30.9%
tolerability ([6]; 200-800 mg bid): generally well tolerated
change from baseline QT or QTc with dosing ([6]; all patients, paced or not): No patient exhibited >30% change
changes in HR, QRS, QT, or QTc ([6]; between baseline and dosing or washout): no significant changes
proarrhythmia, clinical hypothyroidism, hyperthyroidism ([6]; in vivo): no cases of proarrhythmia, clinical hypothyroidism, or hyperthyroidism
serious AEs ([6]; in vivo): no serious AEs related to study drug
thyroid-stimulating hormone level reached after increase, individual patients ([6]; three patients, from 2.53, 3.51 and 0.68, normal range 0.27-4.2): 4.82 mU/L and 9.49 mU/L and 16.12 mU/L
PR interval reduction from baseline ([6]; washout): 30.7 ± 24.3%
